Data as given in US6680333B2, “Imidazolidine derivatives, their preparation, their use and pharmaceutical preparations comprising them” (Aventis Pharma Deutschland GmbH, priority 2001, dated 2004).
Counter-ions that a name gives are not always drawn.

What follows are compounds tested against T1, adhesion of U937 cells (VLA-4) to hVCAM-1(1-3)-IgG (Homo sapiens, UniProt P05556+P13612) (assay: U937/VCAM-1 cell adhesion test). Details: human U937 cells (ATCC CRL 1593); recombinant hVCAM-1(1-3)-IgG; read-out: IC50 (inhibition of the adhesion of U937 cells to hVCAM-1(1-3)-IgG by 50%).
T1 construct: the VLA-4 integrins, are supplied in their natural form as surface molecules on human U937 cells; host or cells: Human U937 cells carry endogenous VLA-4; The partner hVCAM-1(1-3)-IgG was made in transfected COS cells (ATCC CRL1651) and used as culture supernatant
Assay type: cell-based
From the text: A) U937/VCAM-1 Cell Adhesion Test
The test method used for the activity of the compounds of formula I on the interaction between VCAM-1 and VLA-4 is the assay described below, which is specific for this interaction. The cellular binding components, i.e., the VLA-4 integrins, are supplied in their natural form as surface molecules on human U937 cells (ATCC CRL 1593), which belong to the leukocytes group. As specific binding components, recombinant soluble fusion proteins prepared by genetic engineering, consisting of the extracytoplasmic domain of human VCAM-1 and the constant region of a human immunoglobulin of subclass IgG1, are used.
Assay for the measurement of the adhesion of U937 cells (ATCC CRL 1593) to hVCAM-1(1-3)-IgG
1. Preparation of Human VCAM-1(1-3)-IgG and Human CD4-IgG
A genetic construct for the expression of the extracellular domain of human VCAM-1, combined with the genetic sequence of the heavy chain of the human immunoglobulin IgG1 (hinge, CH2 and CH3 regions) (from Dr. Brian Seed, Massachusetts General Hospital, Boston, USA; cf. Damle and Aruffo, Proc. Natl. Acad. Sci. USA, 88:6403 (1991)), was employed. The soluble fusion protein hVCAM-1(1-3)-IgG contained the three amino-terminal extracellular immunoglobulin-like domains of human VCAM-1 (Damle and Aruffo, Proc. Natl. Acad. Sci. USA, 88:6403 (1991)). CD4-IgG (Zettlmeissl et al., DNA and Cell Biology, 9:347 (1990)) served as a fusion protein for negative controls. The recombinant proteins were expressed as soluble proteins after DEAE/dextran-mediated DNA transfection in COS cells (ATCC CRL1651) according to standard procedures (Ausubel et al., “Current Protocols in Molecular Biology”, John Wiley & Sons, Inc., 1994).
2. Assay for the Measurement of the Adhesion of U937 Cells to hVCAM-1 (1-3)-IgG
2.1 96 well microtiter test plates (Nunc Maxisorb) were incubated at room temperature for 1 hour with 100 μL/well of a goat anti-human IgG antibody solution (10 μg/mL in 50 mM tris, pH 9.5). After removal of the antibody solution, washing was carried out once with PBS.
2.2 150 μL/well of a blocking buffer (1% BSA in PBS) were incubated on the plates at room temperature for 0.5 hour. After removal of the blocking buffer, washing was carried out once with PBS.
2.3 100 μL per well of a cell culture supernatant of transfected COS cells were incubated on the plates at room temperature for 1.5 hours. The COS cells were transfected with a plasmid which codes for the three N-terminal immunglobulin-like domains of VCAM-1, coupled to the Fc part of human IgG1 (hVCAM-l (1-3)-IgG). The content of hVCAM-1(1-3)-IgG was about 0.5-1 μg/mL. After removal of the culture supernatant, washing was carried out once with PBS.
2.4 The plates were incubated at room temperature for 20 minutes with 100 μL/well of Fc receptor block buffer (1 mg/mL γ-globulin, 100 mM NaCl, 100 μM MgCl2, 100 μM MnCl2, 100 μM CaCl2, 1 mg/mL BSA in 50 mM HEPES, pH 7.5). After removal of the Fc receptor block buffer, washing was carried out once with PBS.
2.5 20 μL of binding buffer (100 mM NaCl, 100 μM MgCl2, 100 μM MnCl2, 100 μM CaCl2, 1 mg/mL BSA in 50 mM HEPES, pH 7.5) were introduced, the substances to be tested were added in 10 μL of binding buffer and incubation was carried out for 20 minutes. Antibodies against VCAM-1 (BBT, No. BBA6) and against VLA-4 (Immunotech, No. 0764) served as controls.
2.6 U937 cells were incubated for 20 minutes in Fc receptor block buffer and then added by pipette in a concentration of 1×10^6/mL and in an amount of 100 μL per well (final volume […]).
2.7 The plates were slowly immersed at an angle of 45° in stop buffer (100 mM NaCl, 100 μM MgCl2, […], 100 μM CaCl2 in 25 mM tris, pH 7.5) and shaken off. The process was repeated.
2.8 50 μL/well of a dye solution (16.7 μg/mL of Hoechst dye 33258, 4% formaldehyde, 0.5% Triton X-100 in PBS) were then incubated on the plates for 15 minutes. […]

T1 sequence (P13612 34-1032): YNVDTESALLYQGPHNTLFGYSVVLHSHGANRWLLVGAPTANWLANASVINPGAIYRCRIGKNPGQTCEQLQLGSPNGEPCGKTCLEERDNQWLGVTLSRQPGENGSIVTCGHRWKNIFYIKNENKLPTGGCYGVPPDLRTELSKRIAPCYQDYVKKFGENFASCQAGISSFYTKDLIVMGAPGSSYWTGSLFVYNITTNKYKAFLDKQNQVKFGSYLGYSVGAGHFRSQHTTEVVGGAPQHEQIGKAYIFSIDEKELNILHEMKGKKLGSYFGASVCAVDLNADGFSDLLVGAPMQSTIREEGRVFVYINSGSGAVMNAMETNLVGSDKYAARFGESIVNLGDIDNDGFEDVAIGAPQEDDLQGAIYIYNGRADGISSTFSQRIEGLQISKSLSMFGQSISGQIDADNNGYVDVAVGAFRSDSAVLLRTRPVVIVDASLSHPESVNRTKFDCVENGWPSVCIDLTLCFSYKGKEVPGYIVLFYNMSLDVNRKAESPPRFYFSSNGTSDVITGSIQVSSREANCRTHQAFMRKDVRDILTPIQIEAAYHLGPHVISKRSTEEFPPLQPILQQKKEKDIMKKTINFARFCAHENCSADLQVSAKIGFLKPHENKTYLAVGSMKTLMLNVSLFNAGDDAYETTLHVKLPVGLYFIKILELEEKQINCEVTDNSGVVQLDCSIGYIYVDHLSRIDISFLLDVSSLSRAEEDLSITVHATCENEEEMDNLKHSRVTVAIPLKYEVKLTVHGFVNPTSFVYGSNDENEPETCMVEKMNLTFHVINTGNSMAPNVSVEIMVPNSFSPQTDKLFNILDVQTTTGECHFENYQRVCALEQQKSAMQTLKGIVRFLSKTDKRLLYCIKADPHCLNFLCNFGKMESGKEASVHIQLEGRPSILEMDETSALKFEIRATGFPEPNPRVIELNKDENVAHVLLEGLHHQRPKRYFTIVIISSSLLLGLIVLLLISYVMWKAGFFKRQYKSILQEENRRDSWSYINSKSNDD
T1 sequence (P05556 21-798): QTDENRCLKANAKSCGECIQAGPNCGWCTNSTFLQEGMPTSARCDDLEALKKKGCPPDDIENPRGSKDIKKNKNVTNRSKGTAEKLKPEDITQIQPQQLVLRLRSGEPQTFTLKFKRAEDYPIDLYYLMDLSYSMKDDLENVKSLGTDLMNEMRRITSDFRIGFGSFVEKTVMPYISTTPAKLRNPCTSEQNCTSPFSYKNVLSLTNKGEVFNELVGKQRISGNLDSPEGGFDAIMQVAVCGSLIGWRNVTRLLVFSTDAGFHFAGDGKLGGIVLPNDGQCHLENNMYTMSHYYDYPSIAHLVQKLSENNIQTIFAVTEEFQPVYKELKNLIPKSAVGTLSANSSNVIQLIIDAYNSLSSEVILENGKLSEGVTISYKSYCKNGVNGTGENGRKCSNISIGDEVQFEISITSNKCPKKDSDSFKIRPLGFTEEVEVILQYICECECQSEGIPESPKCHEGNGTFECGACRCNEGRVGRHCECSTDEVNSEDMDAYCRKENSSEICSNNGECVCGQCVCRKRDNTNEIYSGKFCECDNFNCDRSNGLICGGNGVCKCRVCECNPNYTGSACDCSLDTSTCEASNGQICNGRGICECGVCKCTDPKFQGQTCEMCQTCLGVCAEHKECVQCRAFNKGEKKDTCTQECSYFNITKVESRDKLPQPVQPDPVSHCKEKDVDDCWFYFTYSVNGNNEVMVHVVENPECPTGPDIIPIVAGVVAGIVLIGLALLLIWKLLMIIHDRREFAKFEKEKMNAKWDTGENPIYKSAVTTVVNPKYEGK

| IC50 [nM] | Compound |
| --- | --- |
| 0.3 | COc1cc(CN2C(=O)N([C@@H](CC3CC3)C(=O)N[C@H](C)CC(=O)O)C(=O)C2(C)C)ccc1NC(=O)Nc1ccccc1C [Example 1, (R)-3-((S)-2-(4,4-Dimethyl-3-(4-(3-(2-methylphenyl)ureido)-3-methoxybenzyl)-2,5-dioxoimidazolidin-1-yl)-2-(cyclopropylmethyl)acetylamino)-3-methylpropionic Acid] |
| 2.1 | COc1cc(CN2C(=O)N([C@@H](CC3CC3)C(=O)N[C@H](C)CC(=O)O)C(=O)C2(C)C)ccc1NC(=O)Nc1ccccc1 [Example 7, (R)-3-((S)-2-(4,4-Dimethyl-3-(4-(3-phenylureido)-3-methoxybenzyl)-2,5-dioxoimidazolidin-1-yl)-2-(cyclopropylmethyl)acetylamino)-3-methylpropionic Acid] |
| 0.6 | COc1cc(CN2C(=O)N([C@@H](CC3CC3)C(=O)NC(CC(=O)O)c3cccnc3)C(=O)C2(C)C)ccc1NC(=O)Nc1ccccc1C (stereo partly drawn) [Example 10, 3-((S)-2-(4,4-Dimethyl-3-(4-(3-(2-methylphenyl)ureido)-3-methoxybenzyl)-2,5-dioxoimidazolidin-1-yl)-2-(cyclopropylmethyl)acetylamino)-3-(3-pyridyl)propionic Acid Hydrochloride] |
| 1.8 | COc1cc(CN2C(=O)N([C@@H](CC3CC3)C(=O)NC(CC(=O)O)c3ccncc3)C(=O)C2(C)C)ccc1NC(=O)Nc1ccccc1C (stereo partly drawn) [Example 13, 3-((S)-2-(4,4-Dimethyl-3-(4-(3-(2-methylphenyl)ureido)-3-methoxybenzyl)-2,5-dioxoimidazolidin-1-yl)-2-(cyclopropylmethyl)acetylamino)-3-(4-pyridyl)propionic Acid Hydrochloride] |
| 0.9 | COc1cc(CN2C(=O)N([C@@H](CC3CC3)C(=O)NC(CC(=O)O)c3ccccn3)C(=O)C2(C)C)ccc1NC(=O)Nc1ccccc1C (stereo partly drawn) [Example 16, 3-((S)-2-(4,4-Dimethyl-3-(4-(3-(2-methylphenyl)ureido)-3-methoxybenzyl)-2,5-dioxoimidazolidin-1-yl)-2-(cyclopropylmethyl)acetylamino)-3-(2-pyridyl)propionic Acid] |
| 25.9 | Cc1ccccc1NC(=O)Nc1ccc(CN2C(=O)N([C@@H](CC3CC3)C(=O)N[C@H](C)CC(=O)O)C(=O)C2(C)C)cc1O [Example 5, (R)-3-((S)-2-(4,4-Dimethyl-3-(4-(3-(2-methylphenyl)ureido)-3-hydroxybenzyl)-2,5-dioxoimidazolidin-1-yl)-2-(cyclopropylmethyl)acetylamino)-3-methylpropionic Acid] |
| 0.5 | COc1cc(CN2C(=O)N([C@@H](CC3CC3)C(=O)N[C@H](C)CC(=O)O)C(=O)C2(C)C)ccc1NC(=O)Nc1ccccc1C [Example 2] |
| 4.4 | COc1cc(CN2C(=O)N([C@@H](CC3CC3)C(=O)N[C@@H](CC(=O)O)c3ccccc3)C(=O)C2(C(F)(F)F)C(F)(F)F)ccc1NC(=O)Nc1ccccc1C [Example 19, (S)-3-((S)-2-(4,4-Bis(trifluoromethyl)-3-(4-(3-(2-methylphenyl)ureido)-3-methoxybenzyl)-2,5-dioxoimidazolidin-1-yl)-2-(cyclopropylmethyl)acetylamino)-3-phenylpropionic Acid] |
